Measurements reported in article PMC3207250 (2011).

Molecular target: Jak2 (Homo sapiens, UniProt O60674)
Format: biochemical

Jak2, sequence (O60674 whole entry): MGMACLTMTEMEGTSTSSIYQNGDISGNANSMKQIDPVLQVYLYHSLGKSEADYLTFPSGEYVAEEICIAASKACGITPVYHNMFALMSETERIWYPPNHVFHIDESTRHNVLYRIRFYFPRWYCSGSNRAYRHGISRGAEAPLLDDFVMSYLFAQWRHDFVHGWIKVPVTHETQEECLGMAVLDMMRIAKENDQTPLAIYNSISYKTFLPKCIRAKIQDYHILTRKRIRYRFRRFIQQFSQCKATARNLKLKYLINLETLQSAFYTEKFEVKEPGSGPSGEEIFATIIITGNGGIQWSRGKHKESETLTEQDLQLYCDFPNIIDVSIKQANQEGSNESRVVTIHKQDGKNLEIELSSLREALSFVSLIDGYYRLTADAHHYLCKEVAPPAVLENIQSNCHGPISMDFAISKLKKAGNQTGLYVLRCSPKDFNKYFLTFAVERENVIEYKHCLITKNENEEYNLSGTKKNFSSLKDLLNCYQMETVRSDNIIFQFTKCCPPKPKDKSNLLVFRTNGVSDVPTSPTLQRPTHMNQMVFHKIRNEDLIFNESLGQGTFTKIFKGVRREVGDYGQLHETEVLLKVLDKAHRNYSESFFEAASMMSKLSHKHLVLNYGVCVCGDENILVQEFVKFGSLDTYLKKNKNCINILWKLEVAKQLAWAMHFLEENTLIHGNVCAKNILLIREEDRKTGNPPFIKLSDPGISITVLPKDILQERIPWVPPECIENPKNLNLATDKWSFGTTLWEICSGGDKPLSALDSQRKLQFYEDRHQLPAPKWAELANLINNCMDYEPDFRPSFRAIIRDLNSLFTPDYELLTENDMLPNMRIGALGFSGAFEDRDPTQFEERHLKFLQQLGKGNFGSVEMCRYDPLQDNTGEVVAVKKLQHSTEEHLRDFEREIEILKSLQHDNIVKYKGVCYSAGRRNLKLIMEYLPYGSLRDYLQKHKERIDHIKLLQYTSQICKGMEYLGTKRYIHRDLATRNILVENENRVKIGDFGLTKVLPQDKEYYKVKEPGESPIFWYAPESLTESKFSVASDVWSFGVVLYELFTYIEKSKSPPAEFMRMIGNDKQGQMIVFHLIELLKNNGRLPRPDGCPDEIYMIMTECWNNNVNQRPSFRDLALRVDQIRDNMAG

For `NC(=O)Nc1sc(-c2ccc(F)cc2)cc1C(N)=O` [TPCA-1, 2-[(Aminocarbonyl)amino]-5-(4-fluorophenyl)-3-thiophenecarboxamide], the Ki was roughly 9 nM.
